Patent publication US7807623B2, “Use of pentagastrin to inhibit gastric acid secretion or as a diuretic” (The Regents of the University of California, priority 1999, dated 2010)
Where “and” joins values, the source holds several entries; their conditions need not be identical. Equal entries are not always repeated.

Experiments:
[1] = system: Pentagastrin-Induced Gastric Acid Secretion; experiment: Continuous pentagastrin infusion model: gastric acid output after single i.v. dose; type: in vivo, human; conditions: for Acid Output, Treatment Period 0-6 h / Acid Output, Treatment Period 6-12 h / Acid Output, Treatment Period 12-18 h / Acid Output, Treatment Period 18-24 h: continuous PG 1 μg/kg/h, mean ± SD; for duration of action (time AO remained <10 mEq/h) / onset of response (time until AO decreased to <10 mEq/h and remained below for 1 h): mean±SD
Method: After 60 min of pentagastrin infusion, subjects received a single dose of i.v. pantoprazole (20, 40, 80, or 120 mg), i.v. famotidine (20 mg), or saline placebo. […] The study protocol was approved by the UCLA Institutional Review Board and conducted according to the provisions of the Declaration of Helsinki and its amendments. Written informed consent was obtained from each participant before enrollment, and the identity of each patient was kept confidential. Each subject underwent a prestudy screening that included a physical examination, electrocardiogram (ECG), laboratory blood and urine analysis, and a pregnancy test for women. The laboratory test included a complete blood count, blood chemistry tests, a test for human immunodeficiency virus, a screening for hepatitis B and C, and a urine drug screen. Subjects were excluded from the study if abnormalities in these parameters were detected. Maximum AO (MAO) were also determined during the screening period. MAO was estimated by the subcutaneous injection of PG (6 μg/kg), after which four 15-min samples were collected and analyzed (Table 1). […] Subjects who completed the screening examination and were eligible for the study were assigned to one of six treatment groups to receive i.v. doses of pantoprazole (20, 40, 80, or 120 mg), i.v. famotidine (20 mg), or placebo (normal saline). […] To stimulate MAO, subjects received an infusion of PG for 25 h (Peptavalon, Wyeth-Ayerst; 1.0 μg/kg/h) begun 1 h before the start of the study drug infusion. Gastric aspirates were collected by means of nasogastric (NG) tube in 15-min fractions from 1 h before study drug treatment through the end of treatment h 2 and in 30 min fractions from h 3 through the end of h 24. The variables measured were onset of response (time until AO decreased to <10 mEq/h and remained below this level for 1 h), duration of response (time from onset until time when AO levels rose to >10 mEq/h and remained so for 1 h), and cumulative AO 15 over 24 h. […] On the evening before study day 1, participants were admitted to the UCLA Clinical Research Center. […] PG administration and MAO analyses were performed. […] Because no fluid or food p.o. was permitted during the study period, subjects received maintenance i.v. fluid to prevent dehydration. Vital signs and electrolytes were monitored during this time. […] (1973) Dig. […] Because this was an exploratory study, statistical analysis consisted of presenting means and standard deviations.

[2] = Adverse event monitoring in the pentagastrin infusion study; type: in vivo, human; conditions: for subjects who withdrew because of adverse events: healthy subjects under continuous PG infusion
Source text: Adverse events were monitored continuously in the Clinical Research Center. Treatment-emergent adverse events were defined as adverse events not present at baseline or events present at baseline that worsened during treatment.

[3] = target: T1, CCKB/gastrin receptor (Rattus norvegicus, UniProt P30553); experiment: Meal gavage: renal hemodynamics, sodium excretion and urine volume; type: in vivo
T1 construct: act specifically at CCKB/gastrin receptors on renal tubular cells; from tissue; host or cells: kidney of living male Wistar-Kyoto rats (in vivo)
T1 sequence (P30553 1-452): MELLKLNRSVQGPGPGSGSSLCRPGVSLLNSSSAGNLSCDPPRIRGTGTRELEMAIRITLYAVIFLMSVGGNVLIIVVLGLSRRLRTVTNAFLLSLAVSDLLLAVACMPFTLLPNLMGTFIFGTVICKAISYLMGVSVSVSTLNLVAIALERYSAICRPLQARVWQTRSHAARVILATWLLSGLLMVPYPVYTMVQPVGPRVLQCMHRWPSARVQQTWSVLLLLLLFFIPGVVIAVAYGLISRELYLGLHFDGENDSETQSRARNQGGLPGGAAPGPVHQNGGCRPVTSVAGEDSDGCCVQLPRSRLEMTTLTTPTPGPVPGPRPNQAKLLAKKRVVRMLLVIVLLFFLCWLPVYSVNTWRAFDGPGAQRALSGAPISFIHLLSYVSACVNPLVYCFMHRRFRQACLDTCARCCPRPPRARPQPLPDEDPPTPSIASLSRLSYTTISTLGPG
Method: (§1) Male Wistar-Kyoto rats (300 grams, 10-12 weeks old) (Harlan Sprague Dawley, Indianapolis, Ind.) were maintained on a regular Purina rat chow diet. Catheters were placed into the external jugular and femoral veins and left carotid artery and systemic arterial pressure was monitored. The right suprarenal artery was cannulated with a PE-10 catheter heat stretched to 180 mm and a flow catheter was secured around the right renal artery (Transonic Systems, Ithaca, N.Y.). GFR was determined after an intravenous infusion of normal saline containing [^14C]-inulin (0.01 mCi/10 ml (New England Nuclear, Boston, Mass.) at a rate of 5 ml/100 g body wt. for 30 minutes followed by an infusion of 1.8 ml/100 g body wt/hr). After an equilibration period of 120 minutes, 20 minute collections were begun. Meal gavage studies were performed with 2.5 ml/hr of liquefied rat chow administered via gastric tube. Gastrin 17-1 (Peninsula Laboratories, CA) was diluted in normal saline and infused (10 pmoles/kg/hr) via the right renal artery catheter. Following a basal period, rats received either L-365,260 (80 pmoles/kg, 5 min bolus) or vehicle alone and 20 minute collection periods were begun for determination of sodium and water excretion.

[4] = system: Na+-K+-ATPase; experiment: Na+-K+-ATPase activity in isolated renal tubules after meal; type: biochemical, rat; conditions: direct intrarenal infusion 80 pmoles/kg prior to the meal
Method: Renal tubules (cortical and medullary thick ascending limb of Henle) were isolated (Slobodyansky et al. (1995) Am. J. Physiol. 268: F279-F284) and immediately homogenized (in a Polytron) in 4° C. reaction buffer [4 mM MgCl2, 100 mM tris(hydroxymethyl)aminomethane HCl, pH7.2]. The dephosphorylation of tris(hydroxymethyl)aminomethane-p-nitrophenyl-phosphate was used as the index of Na^+-K^+-ATPase activity (Eisner et al. (1997) Am. J. Physiol. 273: R317-R323).

[5] = target: T1, CCKB/gastrin receptor; experiment: Intrarenal gastrin infusion: renal hemodynamics, sodium excretion and urine volume; type: in vivo; conditions: L-365,260 80 pmoles/kg bolus after gastrin infusion
Method: as §1

[6] = cited from earlier work
[7] = 80 pmoles/kg bolus, more than 5-fold with meal alone
[8] = L-365,260 80 pmoles/kg 5 min bolus before meal gavage
[9] = single i.v. doses 80 and 120 mg

Structure (SMILES): NC(N)=Nc1nc(CSCCC(N)=NS(N)(=O)=O)cs1 [Famotidine, famotidine]
- Peak inhibition of acid output ([1]; single i.v. dose 20 mg): 94%
- hourly AO averaged over the 24-h period ([1]; single i.v. dose 20 mg): 18.2 mEq/h
- loss of acid-suppressing effectiveness ([1]; single i.v. dose 20 mg): lost effectiveness after 6 h
- Acid Output, Treatment Period 0-6 h ([1]; single i.v. dose 20 mg): 4.4 ± 2.5 mEq/h
- Acid Output, Treatment Period 6-12 h ([1]; single i.v. dose 20 mg): 17.7 ± 5.1 mEq/h
- Acid Output, Treatment Period 12-18 h ([1]; single i.v. dose 20 mg): 25.8 ± 9.3 mEq/h
- Acid Output, Treatment Period 18-24 h ([1]; single i.v. dose 20 mg): 25.0 ± 10.4 mEq/h
- duration of action (time AO remained <10 mEq/h) ([1]; single i.v. dose 20 mg): 6.5 ± 2.1 h
- onset of response (time until AO decreased to <10 mEq/h and remained below for 1 h) ([1]; single i.v. dose 20 mg): 0.5 ± 0.2 h
- subjects who withdrew because of adverse events [2]: No subjects
- adverse events reported ([2]; i.v. 20 mg group under continuous PG infusion): Three subjects from the famotidine group complained of abdominal pain and dyspepsia and were noted to have small amounts of blood in their NG aspirate

Structure (SMILES): Cc1cccc(NC(=O)N[C@@H]2N=C(c3ccccc3)c3ccccc3N(C)C2=O)c1 [L-365,260]
- inhibition of meal-stimulated increase in sodium and water excretion ([3]; 80 pmoles/kg bolus): up to 80%
- effect on meal-stimulated increase in urine flow rate ([3]; 80 pmoles/kg bolus, compared to vehicle alone): nearly completely inhibited
- meal-stimulated increase in fractional excretion of sodium (FeNa) in presence of antagonist [3, 7]: 2 fold
- meal-stimulated increase in urinary sodium (UNaV) in presence of antagonist [3, 7]: 2 fold
- effect on meal-induced increase in glomerular filtration rate (GFR) [3, 8]: inhibited
- effect on meal-induced increase in renal blood flow (RBF) [3, 8]: inhibited
- effect on Mean Arterial Pressure (MAP) ([3]; meal gavage study period, 80 pmoles/kg bolus): No effect
- effect on meal induced inhibition of Na+/K+-ATPase activity [4]: complete reversal
- effect on gastrin-stimulated FeNa [5]: returned to near baseline values
- effect on gastrin-stimulated changes in urine flow rate [5]: completely antagonized
- effect on gastrin-stimulated elevation in urinary excretion of sodium [5]: returned to near baseline values

Structure (SMILES): COc1ccnc(C[S+]([O-])c2nc3ccc(OC(F)F)cc3[nH]2)c1OC (stereo not shown) [Pantoprazole, pantoprazole]
- AO suppressed to ([1]; 80 and 120 mg doses, all subjects, after 1 h and for the full 24-h period): < 10 mEq/h
- AO suppressed to ([1]; all i.v. doses (20, 40, 80, 120 mg)): < 10 mEq/h
- time after administration at which acid-suppressing activity was observed ([1]; i.v., in general): 15 to 20 min
- Peak inhibition of acid output ([1]; single i.v. dose 20 mg): 83%
- hourly AO averaged over the 24-h period ([1]; single i.v. dose 20 mg): 11.9 mEq/h
- Acid Output, Treatment Period 0-6 h ([1]; single i.v. dose 20 mg): 11.7 ± 10.5 mEq/h
- Acid Output, Treatment Period 6-12 h ([1]; single i.v. dose 20 mg): 13.6 ± 13.3 mEq/h
- Acid Output, Treatment Period 12-18 h ([1]; single i.v. dose 20 mg): 15.1 ± 13.7 mEq/h
- Acid Output, Treatment Period 18-24 h ([1]; single i.v. dose 20 mg): 14.2 ± 8.6 mEq/h
- duration of action (time AO remained <10 mEq/h) ([1]; single i.v. dose 20 mg): 8.4 ± 8.0 h
- Peak inhibition of acid output ([1]; single i.v. dose 40 mg): 90%
- hourly AO averaged over the 24-h period ([1]; single i.v. dose 40 mg): 7.6 mEq/h
- Acid Output, Treatment Period 0-6 h ([1]; single i.v. dose 40 mg): 8.1 ± 5.4 mEq/h
- Acid Output, Treatment Period 6-12 h ([1]; single i.v. dose 40 mg): 4.8 ± 4.0 mEq/h
- Acid Output, Treatment Period 12-18 h ([1]; single i.v. dose 40 mg): 7.3 ± 4.1 mEq/h
- Acid Output, Treatment Period 18-24 h ([1]; single i.v. dose 40 mg): 10.1 ± 3.7 mEq/h
- Peak inhibition of acid output ([1]; single i.v. dose 80 mg): 99%
- hourly AO averaged over the 24-h period ([1]; single i.v. dose 80 mg): 3.3 mEq/h
- Acid Output, Treatment Period 0-6 h ([1]; single i.v. dose 80 mg): 2.4 ± 1.5 mEq/h
- Acid Output, Treatment Period 6-12 h ([1]; single i.v. dose 80 mg): 1.2 ± 0.6 mEq/h
- Acid Output, Treatment Period 12-18 h ([1]; single i.v. dose 80 mg): 3.7 ± 1.9 mEq/h
- Acid Output, Treatment Period 18-24 h ([1]; single i.v. dose 80 mg): 6.1 ± 3.2 mEq/h
- duration of action (time AO remained <10 mEq/h) ([1]; single i.v. dose 80 mg): 21.2 ± 1.9 h
- onset of response (time until AO decreased to <10 mEq/h and remained below for 1 h) ([1]; single i.v. dose 80 mg): 0.8 ± 0.3 h
- Peak inhibition of acid output ([1]; single i.v. dose 120 mg): 100%
- hourly AO averaged over the 24-h period ([1]; single i.v. dose 120 mg): 2.4 mEq/h
- Acid Output, Treatment Period 0-6 h ([1]; single i.v. dose 120 mg): 1.3 ± 0.8 mEq/h
- Acid Output, Treatment Period 6-12 h ([1]; single i.v. dose 120 mg): 0.7 ± 0.2 mEq/h
- Acid Output, Treatment Period 12-18 h ([1]; single i.v. dose 120 mg): 3.7 ± 0.7 mEq/h
- Acid Output, Treatment Period 18-24 h ([1]; single i.v. dose 120 mg): 5.2 ± 0.4 mEq/h
- onset of response (time until AO decreased to <10 mEq/h and remained below for 1 h) ([1]; single i.v. dose 120 mg): 0.4 ± 0.2 h
- duration of acid output suppression [1, 9]: > 20 h
- onset of action [1, 9]: < 1 h
- suppression of acid output ([1]; single i.v. doses 80 and 120 mg, all subjects): 99-100%
- suppression of acid output ([1]; single i.v. doses 80 and 120 mg, all subjects, listed as pantoprazole): > 90%
- duration of acid output suppression ([1]; single i.v. doses 80 and 120 mg, listed as pantoprazole): ~24 h and < 21 h
- subjects who withdrew because of adverse events [2]: Three

Structure (SMILES): CSCC[C@H](NC(=O)[C@H](Cc1c[nH]c2ccccc12)NC(=O)CCNC(=O)OC(C)(C)C)C(=O)N[C@@H](CC(=O)O)C(=O)N[C@@H](Cc1ccccc1)C(N)=O [Pentagastrin, N-t-butyloxycarbonyl-Beta-alanyl-L-tryptophyl-L-methionyl-L-aspartyl-L-phenyl-alanyl amide]
- solubility in dimethylformamide and dimethylsulfoxide [6]: soluble
- solubility in water, ethanol, ether, benzene, chloroform, ethyl acetate [6]: almost insoluble
